Measurements taken from patent publication US20230372433A1, “NANOPARTICLE FOR ANTI-CANCER PEPTIDES AND USES THEREOF” (KING'S COLLEGE LONDON, priority 2020, published 2023).
Read-outs that look alike come from different tables or passages of the source. [ ]: non-standard residue; d: D form.

Assays:
[1] = system: HMLER-shEcad cells; test: HMLER-shEcad viability with co-incubated necrostatin or z-VAD-FMK; format: cell-based, human
[2] = system: HEK293T (human embryonic kidney cell); test: MTT cytotoxicity assay, HEK293T; format: cell-based; conditions: read-out: IC50 HEK293T
[3] = system: U2OS (human bone osteosarcoma); test: MTT cytotoxicity assay, U2OS; format: cell-based; conditions: 72 hr
[4] = system: HMLER-shEcad mammospheres; test: Tumoursphere formation and viability assay; format: cell-based, human
[5] = system: HMLER (human breast cancer bulk cell); test: MTT cytotoxicity assay, HMLER; format: cell-based; conditions: read-out: IC50 HMLER
[6] = system: HMLER-shEcad (human breast cancer stem cell); test: MTT cytotoxicity assay, HMLER-shEcad; format: cell-based
[7] = system: MCF-10A (human breast epithelial cell); test: cells; conditions: read-out: IC50 MCF-10A
[8] = system: human red blood cells
Method: Peptides were serially diluted in PBS starting at a concentration of 100 μM. The final volume of peptide in each well was 50 μL. To each well, 50 μL of RBCs in PBS at 2×10^8 cells/mL was added. As a positive lysis control, 1% triton was used. The mixtures were incubated at 37° C. for 1 hour, after which they were centrifuged at 1000x g for 5 minutes. After centrifugation, 10 μL of supernatant was transferred to 90 μL of DI H2O in a fresh 96-well plate. The absorbance of released hemoglobin at 410 nm was recorded and the fractional hemolysis was calculated based on the 100% and 0% lysis controls.

[9] = Tryptophan fluorescent binding assay, 3POPC/1POPG vesicles; conditions: 50 μM peptide, PBS pH 7.4
How it was run: (§1)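 Tryptophan fluorescence was measured with peptide fixed at 50 μM and POPC or 3POPC/1POPG LUVs (100 nm extruded) titrated 0–5000 μM in PBS pH 7.4, read after 60 min. Excitation was 280 nm and emission 300–450 nm. The value is the lipid concentration giving 50% peptide binding, expressed as lipid per peptide.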

[10] = Tryptophan fluorescent binding assay, POPC vesicles; conditions: 50 μM peptide, PBS pH 7.4
How it was run: as §1

[11] = ANTS/DPX liposome leakage assay, 3POPC/1POPG vesicles; format: biochemical; conditions: for Peptide Concentration-induced 50% ANTS/DPX leakage at pH 4.8 (L/P) 3POPC/1POPG Vesicle / Peptide Concentration-induced 50% ANTS/DPX leakage at pH 7.4 (L/P) 3POPC/1POPG Vesicle: 0.5 mM vesicles
How it was run: (§2)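 0.5 mM extruded 100 nm LUVs loaded with 5 mM ANTS/12.5 mM DPX were incubated 3 h with peptide at 0–20 μM in PBS pH 7.4 or HCl-adjusted PBS pH 4.8. Fluorescence read at ex 350/em 510 nm; 10% Triton set maximum leakage; values expressed as lipid per peptide.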

[12] = ANTS/DPX liposome leakage assay, POPC vesicles; format: biochemical; conditions: 0.5 mM vesicles
How it was run: as §2

[13] = 72 hr, MTT, read-out: IC50 HMLER-shEcad

Molecule	Lipid Concentration-induced 50% Peptide Binding (L/P) 3POPC/1POPG Vesicle [9] [L/P]	Lipid Concentration-induced 50% Peptide Binding (L/P) POPC Vesicle [10] [L/P]	Peptide Concentration-induced 50% ANTS/DPX leakage at pH 4.8 (L/P) 3POPC/1POPG Vesicle ([11]; pH 4.8) [L/P]	Peptide Concentration-induced 50% ANTS/DPX leakage at pH 7.4 (L/P) 3POPC/1POPG Vesicle [11] [L/P]	Peptide Concentration-induced 50% ANTS/DPX leakage at pH 4.8 (L/P) POPC Vesicle [12] [L/P]	Peptide Concentration-induced 50% ANTS/DPX leakage at pH 7.4 (L/P) POPC Vesicle [12] [L/P]	IC50 ([2]; 72 hr, MTT) [µM]	IC50 [3] [µM]	IC50 ([5]; 72 hr, MTT) [µM]	IC50 [6, 13] [µM]	IC50 ([7]; 72 hr, MTT) [µM]	further results
COc1cccc2c1C(=O)c1c(O)c3c(c(O)c1C2=O)C[C@@](O)(C(=O)CO)C[C@@H]3O[C@H]1C[C@H](N)[C@H](O)[C@H](C)O1 [Doxorubicin, reference compound]												cell viability on co-incubation with necrostatin or z-VAD-FMK [1]: can be dramatically improved; IC50 ([2]; Homo sapiens, HEK-293T, 72 hr, MTT): 0.00011 µM; IC50 ([3]; Homo sapiens, U2OS): 0.015 µM; fold decrease in activity, mammospheres versus two-dimensional HMLER-shEcad [4]: 1,700 fold; IC50 ([5]; Homo sapiens, 72 hr, MTT): 0.0025 µM; IC50 ([6]; Homo sapiens, 72 hr, MTT, read-out: IC50 HMLER-shEcad): 0.003 µM; IC50 ([6]; Homo sapiens, two-dimensional culture, read-out: IC50 against two-dimensional HMLER-shEcad): 0.0025 ± 0.0003 µM; IC50 ([7]; Homo sapiens, MCF-10A, 72 h): 0.64 µM
CC(C)C[C@H](NC(=O)CN)C(=O)N[C@@H](CC(C)C)C(=O)N[C@@H](CCC(=O)O)C(=O)N[C@@H](CC(C)C)C(=O)N[C@@H](CC(C)C)C(=O)N[C@@H](CCC(=O)O)C(=O)N[C@@H](CC(C)C)C(=O)N[C@@H](CC(C)C)C(=O)N[C@@H](CC(C)C)C(=O)N[C@@H](CCCCN)C(=O)N[C@@H](C)C(=O)N[C@@H](C)C(=O)NCC(=O)N[C@@H](Cc1c[nH]c2ccccc12)C(N)=O [EEK]	4.50	0.48	386	657	39	730						cell viability on co-incubation with necrostatin or z-VAD-FMK [1]: cannot be improved; concentration below which minimal lysis is caused [8]: below 90 μM; liposome leakage activity from anionic vesicle at pH 4.8 ([11]; compared with zwitterionic vesicle, pH 4.8): relatively higher liposome leakage activity
CC[C@@H](C(=O)[C@@H](C)[C@@H](O)[C@H](C)[C@@H]1O[C@@H]([C@@H](CC)C(=O)O)CC[C@@H]1C)[C@H]1O[C@]2(C=C[C@@H](O)[C@]3(CC[C@@](C)([C@H]4CC[C@](O)(CC)[C@H](C)O4)O3)O2)[C@H](C)C[C@@H]1C [Salinomycin, reference compound]												IC50 ([2]; Homo sapiens, HEK-293T, 72 h): 0.41 ± 0.1 µM; fold decrease in activity, mammospheres versus two-dimensional HMLER-shEcad [4]: 63 fold; IC50 ([4]; Homo sapiens, read-out: IC50 in mammospheres): 22 ± 5 µM; IC50 ([5]; Homo sapiens, 72 h): 0.37 ± 0.08 µM; IC50 ([6]; Homo sapiens, 72 h, read-out: IC50 HMLER-shEcad): 0.92 ± 0.28 µM; IC50 ([6]; Homo sapiens, read-out: IC50 against two-dimensional HMLER-shEcad): 0.37 ± 0.0005 µM; IC50 ([7]; Homo sapiens, MCF-10A, 72 h): 9.76 ± 2.28 µM
D-form peptide of the selected sequence EEK (GLLELLELLLKAAGW) (H-G[dL][dL][dE][dL][dL][dE][dL][dL][dL][dK][dA][dA]G[dW]-NH2) [D-form EEK]							2.82 ± 0.07	4.78 ± 0.02	0.29 ± 0.01	0.29 ± 0.01	1.07 ± 0.1	cell viability on co-incubation with necrostatin or z-VAD-FMK [1]: cannot be improved
GLLHLLKLLLKAAG [HKK]	0.14	0.18	106	90	106	657	9.5 ± 0.99	12.23 ± 0.11	3.4 ± 0.71	2.6 ± 0.42	2.18 ± 0.39	
GLLKLLELLLHAAG [KEH]	0.50	1.00	68	286	188	995	5.65 ± 0.07	49.2 ± 5.3	3.3 ± 0.42	2.35 ± 0.07	20	
GLLKLLELLLKAAG [KEK]	0.50	0.47	126	438	110	1173	3.2 ± 0.14	8.15 ± 0.49	1.6 ± 0.14	1.35 ± 0.07	1.55 ± 0.07	
GLLKLLHLLLEAAG [KHE]	0.71	0.88	156	188	183	981	26 ± 2.83	53 ± 2.83	3.7 ± 0.14	2.92 ± 0.17	20.9 ± 5.87	
GLLKLLHLLLHAAG [KHH]	0.94	3.50	48	329	227	1153	7.75 ± 0.78	39.8 ± 5.3	5.2 ± 0.71	4.45 ± 0.49	10.3 ± 0.49	
GLLKLLHLLLKAAG [KHK]	0.38	0.17	53	193	140	1153	3.55 ± 0.78	12.9 ± 1.24	2.59 ± 0.92	1.4 ± 0.14	1.81 ± 0.05	
GLLKLLKLLLEAAG [KKE]	0.44	0.48	131	346	143	1133	4.4 ± 0.14	12.8 ± 1.2	2.05 ± 0.64	1.7	2.9 ± 0.57	
GLLKLLKLLLHAAG [KKH]	0.48	0.83	49	227	164	2119	4 ± 0.28	13.3 ± 0.99	2.4 ± 0.85	2.2 ± 0.42	1.75 ± 0.35	
GLLKLLKLLLKAAG [KKK]	1.70	1.25	81	115	156	1369	3.7 ± 0.14	9.65 ± 1.2	1.57 ± 0.24	1.35 ± 0.4	1.37 ± 0.24	
